{"source": "patent US20160298129A1", "about": "“ALS INHIBITOR HERBICIDE TOLERANT MUTANT PLANTS” (BAYER CROPSCIENCE NV, priority 2013, published 2016)", "key": {"[1]": {"system": "WT tissues (hypocotyl derived callus)", "experiment": "Callus culture on Foramsulfuron selection medium", "format": "cell-based, Brassica napus", "conditions": "250 nM in M-338 [H76] medium", "procedure": "Five day old seedlings were used for the preparation of hypocotyl segments 7-10 mm in length. Hypocotyl segments were transferred to 14 cm Petri plates containing 75 ml of M-338 [H76] callus induction medium (25 explants/plate). M-338 [H76] medium is MS salts and vitamins (Murashige and Skoog, 1962), 20 g/l sucrose, 0.5 g/l MES, 0.5 g/l adenine sulphate, 5 mg/l silver nitrate, 0.5 mg/l 2,4-D, 0.2 mg/l kinetin and solidified with 5.5 g/l agarose (pH 5.7). Dishes were sealed and cultured at 24° C. with standard light conditions (16 h/day). After 3 weeks, calli developing at the ends of the explants were transferred to fresh M-338 [H76] plates (25 calli/plate). Calli were subcultured to fresh medium every 3 weeks (larger calli cut into two pieces).\nHypocotyl derived callus (9 weeks old) was used for the selection of herbicide resistant mutants. […] Dishes were cultured at 24° C. with standard light conditions (16 h/day). After 3 weeks, the calli were divided into 2 pieces each and replated on M-338 [H76] medium containing 1.0 μM Foramsulfuron. Further increases in Foramsulfuron concentration (e.g. 1.5 μM, 2.0 μM, 2.5 μM, 3.0 μM or higher) were made each subculture until rapidly growing green (resistant) calli could clearly be identified from the brown non-resistant tissues."}, "AHAS P197S-W574L": {"molecular_target": "AHAS P197S-W574L (Arabidopsis thaliana, UniProt P17597, E575Q/P197S/W574L)", "sequence (P17597 56-670 P197S/W574L/E575Q)": "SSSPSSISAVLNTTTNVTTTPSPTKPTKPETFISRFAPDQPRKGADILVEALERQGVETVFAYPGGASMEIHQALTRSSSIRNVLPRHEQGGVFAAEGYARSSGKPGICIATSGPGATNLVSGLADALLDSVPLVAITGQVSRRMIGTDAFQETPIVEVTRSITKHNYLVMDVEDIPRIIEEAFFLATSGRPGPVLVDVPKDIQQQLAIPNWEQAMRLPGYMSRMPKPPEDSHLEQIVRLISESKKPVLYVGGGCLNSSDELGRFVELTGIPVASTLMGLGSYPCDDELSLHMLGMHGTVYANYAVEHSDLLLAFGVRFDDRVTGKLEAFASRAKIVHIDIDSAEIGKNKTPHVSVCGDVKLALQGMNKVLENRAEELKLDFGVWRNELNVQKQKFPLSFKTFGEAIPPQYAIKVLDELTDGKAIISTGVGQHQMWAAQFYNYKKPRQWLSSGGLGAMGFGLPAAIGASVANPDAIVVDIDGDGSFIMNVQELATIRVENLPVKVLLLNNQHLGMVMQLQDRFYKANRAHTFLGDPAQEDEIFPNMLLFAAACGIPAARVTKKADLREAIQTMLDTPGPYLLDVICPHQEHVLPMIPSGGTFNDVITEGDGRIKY", "experiment": "biochemical", "procedure": "(§1) Bacteria are grown at 37° C. in LB-medium containing 100 mg/l carbenicillin and 25 mg/l canamycin, induced with 1 mM isopropyl-β-D-thiogalactopyranoside at an OD600 of 0.6, cultivated for 16 hours at 18° C. and harvested by, e.g., centrifugation. Bacterial pellets are resuspended in 100 mM sodium phosphate buffer pH 7.0 containing 0.1 mM thiamine-pyrophosphate, 1 mM MgCl2, and 1 μM FAD at a concentration of 1 gram wet weight per 25 ml of buffer and disrupted by, e.g., sonification. The crude protein extract obtained after centrifugation is used for ALS activity measurements.\n(§2) ALS protein can be extracted from leaves or tissue cultures, such as B. napus or B. juncea leaves, or B. napus or B. juncea tissue cultures as described by Ray (Plant Physiol, 1984, 75:827-831). An ALS assays can be carried out in 96-well microtiter plates using a modification of the procedure described by Ray (1984): The reaction mixture contains 20 mM potassium phosphate buffer pH 7.0, 20 mM sodium pyruvate, 0.45 mM thiamine-pyrophosphate, 0.45 mM MgCl2, 9 μM FAD. ALS enzyme and various concentrations of ALS inhibitors can be mixed in a final volume of 90 μl Assays can be initiated by adding enzyme and the assays can be terminated after 75 min incubation at 30° C. by the addition of 40 μl 0.5 M H2SO4."}, "AHAS D376E": {"molecular_target": "AHAS D376E (Arabidopsis thaliana, UniProt P17597, D376E/E575Q)", "sequence (P17597 56-670 D376E/E575Q)": "as the sequence (P17597 56-670 P197S/W574L/E575Q) above, with S142P, D321E, L519W counted along it", "experiment": "biochemical", "procedure": "as §1, §2"}, "AHAS D376E-W574L": {"molecular_target": "AHAS D376E-W574L (Arabidopsis thaliana, UniProt P17597, D376E/E575Q/W574L)", "sequence (P17597 56-670 D376E/W574L/E575Q)": "as the sequence (P17597 56-670 P197S/W574L/E575Q) above, with S142P, D321E counted along it", "experiment": "biochemical", "procedure": "as §1, §2"}, "AHAS P197S-D376E": {"molecular_target": "AHAS P197S-D376E (Arabidopsis thaliana, UniProt P17597, D376E/E575Q/P197S)", "sequence (P17597 56-670 P197S/D376E/E575Q)": "as the sequence (P17597 56-670 P197S/W574L/E575Q) above, with D321E, L519W counted along it", "experiment": "biochemical", "procedure": "as §1, §2"}, "AHAS P197S-D376E-W574L": {"molecular_target": "AHAS P197S-D376E-W574L (Arabidopsis thaliana, UniProt P17597, D376E/E575Q/P197S/W574L)", "sequence (P17597 56-670 P197S/D376E/W574L/E575Q)": "as the sequence (P17597 56-670 P197S/W574L/E575Q) above, with D321E counted along it", "experiment": "biochemical", "procedure": "as §1, §2"}, "AHAS WT [2]": {"molecular_target": "AHAS WT (Arabidopsis thaliana, UniProt P17597)", "sequence (P17597 56-670 E575Q)": "as the sequence (P17597 56-670 P197S/W574L/E575Q) above, with S142P, L519W counted along it", "experiment": "biochemical", "procedure": "as §1, §2"}, "AHAS P197S": {"molecular_target": "AHAS P197S (Arabidopsis thaliana, UniProt P17597, E575Q/P197S)", "sequence (P17597 56-670 P197S/E575Q)": "as the sequence (P17597 56-670 P197S/W574L/E575Q) above, with L519W counted along it", "format": "biochemical", "procedure": "as §1, §2"}, "AHAS W574L": {"molecular_target": "AHAS W574L (Arabidopsis thaliana, UniProt P17597, E575Q/W574L)", "sequence (P17597 56-670 W574L/E575Q)": "as the sequence (P17597 56-670 P197S/W574L/E575Q) above, with S142P counted along it", "format": "biochemical", "procedure": "as §1, §2"}, "[3]": {"system": "oilseed rape homozygous for HETO132 and HETO134 (132-134)", "experiment": "Field herbicide tolerance, visible phytotoxicity (ALS I W574L, ALS III P197S-W574L)", "format": "in vivo, Brassica napus", "conditions": "gai/ha: imazamox 40, bispyribac-sodium 50, propoxycarbazone-sodium 70, mesosulfuron-methyl 60, pyroxsulam 12.5 + cloquintocet-mexyl 37.5, each + rapeseed oil methylated 366.5", "text": "(§3) Seeds of spring oilseed rape homozygous for HETO139 and HETO134 were sown in a field according to typical practical agricultural methods together with seeds homozygous for HETO134 and HETO133 (comprising a W574L mutation on ALS III, which were obtained in the same way as HETO134), and with seeds homozygous for HETO134 and HETO132 (comprising a P197S and a W574L mutation on ALS III, which were obtained in essentially the same way as HETO139). Several ALS inhibitor herbicides were applied to the oilseed rape plants by using specific spray equipment for small plot applications."}, "[4]": {"system": "oilseed rape homozygous for HETO133 and HETO134 (133-134)", "experiment": "Field herbicide tolerance, visible phytotoxicity (ALS I W574L, ALS III W574L)", "format": "in vivo, Brassica napus", "conditions": "gai/ha: imazamox 40, bispyribac-sodium 50, propoxycarbazone-sodium 70, mesosulfuron-methyl 60, pyroxsulam 12.5 + cloquintocet-mexyl 37.5, each + rapeseed oil methylated 366.5", "text": "as §3"}, "[5]": {"system": "oilseed rape homozygous for HETO139 and HETO134 (139-134)", "experiment": "Field herbicide tolerance, visible phytotoxicity (ALS I W574L, ALS III P197S-D376E)", "format": "in vivo, Brassica napus", "conditions": "gai/ha: imazamox 40, bispyribac-sodium 50, propoxycarbazone-sodium 70, mesosulfuron-methyl 60, pyroxsulam 12.5 + cloquintocet-mexyl 37.5, each + rapeseed oil methylated 366.5", "text": "as §3"}, "AHAS WT [6]": {"molecular_target": "AHAS WT (Arabidopsis thaliana, UniProt P17597, E575Q)", "sequence (P17597 56-670 E575Q)": "as the sequence (P17597 56-670 P197S/W574L/E575Q) above, with S142P, L519W counted along it", "experiment": "biochemical", "conditions": "AHAS WT", "procedure": "as §1, §2"}, "[7]": {"system": "wild-type (WT) oilseed rape", "experiment": "Field herbicide tolerance, visible phytotoxicity", "format": "in vivo, Brassica napus", "conditions": "gai/ha: imazamox 40, bispyribac-sodium 50, propoxycarbazone-sodium 70, mesosulfuron-methyl 60, pyroxsulam 12.5 + cloquintocet-mexyl 37.5, each + rapeseed oil methylated 366.5"}}, "data": [{"smiles": "COc1cc(OC)nc(NC(=O)NS(=O)(=O)c2cc(NC=O)ccc2C(=O)N(C)C)n1", "note": "[Foramsulfuron, foramsulfuron]", "values": [{"measurement": "inhibition of callus tissues", "setting": "[1]", "result": "clearly inhibitory"}, {"measurement": "IC50", "setting": "AHAS P197S-W574L", "result": "> 100", "unit": "µM"}, {"measurement": "Resistance Factor", "setting": "AHAS P197S-W574L; AHAS P197S-W574L", "result": ">11748"}, {"measurement": "IC50", "setting": "AHAS D376E", "result": 31.6, "unit": "µM"}, {"measurement": "Resistance Factor", "setting": "AHAS D376E; AHAS D376E", "result": 3715}, {"measurement": "IC50", "setting": "AHAS D376E-W574L", "result": "> 100", "unit": "µM"}, {"measurement": "Resistance Factor", "setting": "AHAS D376E-W574L; AHAS D376E-W574L", "result": ">11748"}, {"measurement": "IC50", "setting": "AHAS P197S-D376E", "result": "> 100", "unit": "µM"}, {"measurement": "Resistance Factor", "setting": "AHAS P197S-D376E; AHAS P197S-D376E", "result": ">11748"}, {"measurement": "IC50", "setting": "AHAS P197S-D376E-W574L", "result": "> 100", "unit": "µM"}, {"measurement": "Resistance Factor", "setting": "AHAS P197S-D376E-W574L; AHAS P197S-D376E-W574L", "result": ">11748"}, {"measurement": "IC50", "setting": "AHAS WT [2]", "result": 0.00794, "unit": "µM"}, {"measurement": "Resistance Factor", "setting": "AHAS P197S", "result": 12}, {"measurement": "Resistance Factor", "setting": "AHAS W574L", "result": 5888}]}, {"smiles": "COc1cc(OC)n2nc(NS(=O)(=O)c3c(C(F)(F)F)ccnc3OC)nc2n1", "note": "[Pyroxsulam, pyroxsulam]", "values": [{"measurement": "Percentage phytotoxicity", "setting": "[3]; 9 DAA", "result": 13.3, "unit": "%"}, {"measurement": "Percentage phytotoxicity", "setting": "[3]; 16 DAA", "result": 16, "unit": "%"}, {"measurement": "Percentage phytotoxicity", "setting": "[3]; 24 DAA", "result": 5, "unit": "%"}, {"measurement": "Percentage phytotoxicity", "setting": "[4]; 9 DAA", "result": 13.3, "unit": "%"}, {"measurement": "Percentage phytotoxicity", "setting": "[4]; 16 DAA", "result": 17, "unit": "%"}, {"measurement": "Percentage phytotoxicity", "setting": "[4]; 24 DAA", "result": 15, "unit": "%"}, {"measurement": "Percentage phytotoxicity", "setting": "[5]; 9 DAA", "result": 10.7, "unit": "%"}, {"measurement": "Percentage phytotoxicity", "setting": "[5]; 16 DAA", "result": 16, "unit": "%"}, {"measurement": "Percentage phytotoxicity", "setting": "[5]; 24 DAA", "result": 10.7, "unit": "%"}, {"measurement": "Resistance Factor", "setting": "AHAS P197S-W574L; AHAS P197S-W574L", "result": ">41368"}, {"measurement": "pI50", "setting": "AHAS P197S-W574L; AHAS P197S-W574L", "result": "<4"}, {"measurement": "pI50", "setting": "AHAS WT [6]", "result": 8.6}, {"measurement": "Resistance Factor", "setting": "AHAS D376E; AHAS D376E", "result": 656}, {"measurement": "pI50", "setting": "AHAS D376E; AHAS D376E", "result": 5.8}, {"measurement": "Resistance Factor", "setting": "AHAS D376E-W574L; AHAS D376E-W574L", "result": ">41368"}, {"measurement": "pI50", "setting": "AHAS D376E-W574L; AHAS D376E-W574L", "result": "<4"}, {"measurement": "Resistance Factor", "setting": "AHAS P197S-D376E; AHAS P197S-D376E", "result": ">41368"}, {"measurement": "pI50", "setting": "AHAS P197S-D376E; AHAS P197S-D376E", "result": "<4"}, {"measurement": "Resistance Factor", "setting": "AHAS P197S-D376E-W574L; AHAS P197S-D376E-W574L", "result": ">41368"}, {"measurement": "pI50", "setting": "AHAS P197S-D376E-W574L; AHAS P197S-D376E-W574L", "result": "<4"}, {"measurement": "Resistance Factor", "setting": "AHAS P197S", "result": 261}, {"measurement": "pI50", "setting": "AHAS P197S", "result": 6.2}, {"measurement": "Resistance Factor", "setting": "AHAS W574L", "result": ">41368"}, {"measurement": "pI50", "setting": "AHAS W574L", "result": "<4"}, {"measurement": "Percentage phytotoxicity", "setting": "[7]; 9 DAA", "result": 76.7, "unit": "%"}, {"measurement": "Percentage phytotoxicity", "setting": "[7]; 16 DAA", "result": 98, "unit": "%"}, {"measurement": "Percentage phytotoxicity", "setting": "[7]; 24 DAA", "result": 98, "unit": "%"}]}]}
